Experiment: RP, Waters ACQUITY UPLC HSS T3, 100 × 2.1 mm, 1.8 µm, 30 °C, 0.3 mL/min, estimated dead time 0.73 min; A: water + 0.1% formic acid, pH 3; B: methanol + 0.1% formic acid, pH 3; gradient (min/%B) 0/0 6/0 56/100 60/100
Details: stereoisomer not certain

LC retention time	Compound
1.29 min	N[C@@H](CCO)C(=O)O [L-homoserine]
4.62 min	CC[C@H](C)[C@H](N)C(=O)O [L-isoleucine]
11 min	Nc1ccccc1C(=O)CC(N)C(=O)O [L-kynurenine]
4.98 min	CC(C)C[C@H](N)C(=O)O [L-leucine]
1.18 min	NCCCC[C@H](N)C(=O)O [L-lysine]
2 min	O=C(O)C[C@H](O)C(=O)O [L-malic acid]
2.8 min	CSCC[C@H](N)C(=O)O [L-methionine]
2.3 min	CCC[C@H](N)C(=O)O [L-norvaline]
1.1 min	NCCC[C@H](N)C(=O)O [L-ornithine]
11.5 min	N[C@@H](Cc1ccccc1)C(=O)O [L-phenylalanine]
1.59 min	O=C(O)[C@@H]1CCCN1 [L-proline]
1.38 min	N[C@@H](CCCCN[C@@H](CCC(=O)O)C(=O)O)C(=O)O [L-saccharopine]
1.22 min	N[C@@H](CO)C(=O)O [L-serine]
1.3 min	C[C@@H](O)[C@H](N)C(=O)O [L-threonine]
16 min	N[C@@H](Cc1c[nH]c2ccccc12)C(=O)O [L-tryptophan]
6.08 min	N[C@@H](Cc1ccc(O)cc1)C(=O)O [L-tyrosine]
2.19 min	CC(C)[C@H](N)C(=O)O [L-valine]
60.4 min	CCCCCCCCCCCCCCCCCCCCC(=O)OC [Methyl henicosanoate]
28.3 min	CC1OC(Oc2c(-c3cc(O)c(O)c(O)c3)oc3cc(O)cc(O)c3c2=O)C(O)C(O)C1O (centres undefined) [Myricitrin (myricetin 3-O-rhamnoside)]
1.5 min	CC(=O)NC1C(O)CC(O)(C(=O)O)OC1C(O)C(O)CO (centres undefined) [N-Acetyl-neuraminic acid]
17.4 min	CC(=O)NC(Cc1ccc(O)cc1)C(=O)O (centres undefined) [N-acetyl tyrosine]
1.49 min	CC(=O)NC1C(O)OC(CO)C(O)C1O (centres undefined) [N-acetyl-galactosamine]
2 min	O=C1CCC(=O)N1O [N-hydroxysuccinimide]
1.21 min	N[C@@H](COP(=O)(O)O)C(=O)O [O-phospho-L-serine]
33 min	Oc1ccc(C2Oc3cc(O)cc4c3C2c2cc(O)cc3c2C(c2cc(O)cc5c2C4C(c2ccc(O)cc2)O5)C(c2ccc(O)cc2)O3)cc1 (centres undefined) [a-viniferin]
31.3 min	CC(C=CC1(O)C(C)=CC(=O)CC1(C)C)=CC(=O)O (centres undefined) [abscisic acid]
8 min	CC(=O)NC(CS)C(=O)O (centres undefined) [acetylcysteine]
2.33 min	Nc1ncnc2nc[nH]c12 [adenine*]
10.9 min	Nc1ncnc2c1ncn2C1OC(CO)C(O)C1OP(=O)(O)O (centres undefined) [adenosine 2'-monophosphate]

Further lines, the molecule ahead of its results:

Compound	LC retention time
Oc1ccc(C=Cc2cc(O)cc3c2C(c2cc(O)cc(O)c2)C(c2ccc(O)cc2)O3)cc1 (centres undefined)	33.5 min
OCC1OC(Oc2ccccc2)C(O)C(O)C1O (centres undefined)	16.4 min
Nc1ncnc2c1ncn2C1OC(COP(=O)(O)O)C(O)C1O (centres undefined)	4.08 min
OCC(O)C(O)CO (racemic)	1.41 min
CC(C)CCCC(C)C1CCC2C3CC4OC45CC(O)CCC5(C)C3CCC12C (racemic)	57.7 min
CC1=CCCC(C)(C)C12CCC(C)O2 (racemic)	48.1 min
O=C(C=Cc1ccc(O)c(O)c1)OC1CC(OC(=O)C=Cc2ccc(O)c(O)c2)(C(=O)O)CC(O)C1O (centres undefined) [1,3 - dicaffeoylquinic acid]	24.9 min
NCCCN [1,3 diaminopropane]	1 min
NCCCCN [1,4-diaminobutane]	1.1 min
O=C(O)Cc1c[nH]c2ccccc12 [1H-indol-3-ylacetic acid]	26.6 min
Nc1nc2c(ncn2C2CC(O)C(COP(=O)(O)O)O2)c(=O)[nH]1 (centres undefined) [2'-deoxyguanosine-5'-phosphate]	7.99 min
O=C(O)c1c(O)cccc1O [2,6-dihydroxybenzoic acid]	16.9 min
O=C(O)C(=O)C(O)C(O)C(O)CO [2-keto-D-gluconic acid]	1.4 min
C=Cc1ccc(O)c(OC)c1 [2-methoxy-4-vinylphenol]	31.3 min
CCC(C)CN (centres undefined) [2-methylbutylamine]	6.5 min
CC(C)C(=O)OCCOc1ccccc1 [2-phenoxyethyl isobutyrate]	40.2 min
O=C1CCCN1 [2-pyrrolidinone]	5.9 min
O=Cc1ccc(O)c(O)c1 [3,4 dihydroxybenzaldehyde]	16.2 min
O=C(O)c1cc(O)cc(O)c1 [3,5-dihydroxybenzoic acid]	14.3 min
CCOc1cc(C=O)ccc1O [3-ethoxy-4-hydroxybenzaldehyde]	27.2 min
CC(O)(CC(=O)O)CC(=O)O [3-hydroxy-3-methyl glutaric acid]	7.04 min
O=Cc1cccc(O)c1 [3-hydroxybenzaldehyd]	20.3 min

Compound	LC retention time
Cc1c[nH]c2ccccc12 [3-methyl indole]	34.1 min
CC(=O)CCc1ccc(O)cc1 [4-(4-hydroxyphenyl)butan-2-one]	24.6 min
Nc1ccc(C(=O)O)cc1 [4-aminobenzoic acid]	12.3 min
CN(C)c1ccc(C=CC=O)cc1 [4-dimethylaminocinnamaldehyde]	34.5 min
O=C(O)c1ccc(O)cc1 [4-hydroxybenzoic acid]	17.5 min
O=c1cc(O)c2ccccc2o1 [4-hydroxycoumarin]	24.2 min
Cc1cc(=O)oc2cc(O)ccc12 [4-methylumbelliferone]	27.8 min
Oc1ccc(C=Cc2ccccc2)cc1 [4-stilbenol]	41.8 min
O=Cc1ccc(CO)o1 [5-hydroxymethyl-2-furaldehyde]	11.9 min
Cc1ccc(C=O)o1 [5-methyl furfural]	20.3 min
COc1ccc2oc(-c3ccccc3)cc(=O)c2c1 [6-methoxyflavone]	42.9 min
CCCCCC(O)C=CC=CCC=CCC=CCCCC(=O)O [15(S)hydroxy-(5Z,8Z,11Z,13E)-eicosatetraenoic acid]	50.4 min
CC(C)=C1CCC(C)CC1=O [(R)-(+)-pulegone]	38.9 min
COc1cc(C(C)=O)ccc1O [Acetovanillone]	23.9 min
O=C(O)CC(Nc1ncnc2c1ncn2C1OC(COP(=O)(O)O)C(O)C1O)C(=O)O (centres undefined) [Adenylosuccinic acid]	12.7 min
NC(=O)CCCCC1CCSS1 (stereo not drawn) [Alpha lipoamide]	29 min
CCCCCCCCCCCCCCCCCC(=O)OCCCC [Butyl stearate]	59.5 min
OCC1OC(OC2C(Oc3cc4c(O)cc(O)cc4[o+]c3-c3ccc(O)c(O)c3)OC(CO)C(O)C2O)C(O)C(O)C1O (centres undefined) [Cyanidin 3-sophoroside]	21.4 min
OCc1ccccc1OC1OC(CO)C(O)C(O)C1O (stereo not drawn) [D(-)-Salicin]	16.1 min
O=C(CO)C(O)C(O)C(O)CO (stereo not drawn) [D(-)fructose]	1.4 min
C[C@@H](O)[C@H](O)[C@H](O)[C@@H](O)C=O [D-(+)-fucose]	1.8 min
OCC1OC(OC2OC(CO)C(O)C(O)C2O)C(O)C(O)C1O [D-(+)-trehalose]	1.5 min

Compound	LC retention time
O=C[C@H](O)[C@@H](O)[C@@H](O)[C@H](O)C(=O)O [D-(+)galacturonic acid]	1.33 min
OCC1OC(O)C(O)C1O [D-(-)-Ribose]	1.4 min
CC(C)(CO)C(O)C(=O)NCCC(=O)O [D-pantothenic acid]	14.3 min
CCCCCCCCCCCC=CC=CC=CC=CC=CC(=O)O [Docosapentaenoic acid]	54 min
Oc1ccc(C=Cc2cc(O)cc3c2C(c2cc(O)cc4c2C(c2cc(O)cc(O)c2)C(c2ccc(O)cc2)O4)C(c2ccc(O)cc2)O3)cc1 (stereo not drawn) [E-cis-miyabenol C]	32.6 min
Cc1cc2nc3c(=O)[nH]c(=O)nc-3n(CC(O)C(O)C(O)COP(=O)(O)OP(=O)(O)OCC3OC(n4cnc5c(N)ncnc54)C(O)C3O)c2cc1C (centres undefined) [FAD]	20.7 min
Cc1cc2nc3c(=O)[nH]c(=O)nc-3n(CC(O)C(O)C(O)COP(=O)(O)O)c2cc1C (centres undefined) [FMN]	21.9 min
CC(CCC(=O)O)C1CCC2C3C(O)C(O)C4CC(O)CCC4(C)C3CCC12C (centres undefined) [Hyocholic acid]	45.6 min
O=Cc1c[nH]c2ccccc12 [Indole-3-aldehyde]	25.1 min
O=C(O)C(O)Cc1c[nH]c2ccccc12 (centres undefined) [Indolelactic acid]	24.6 min
O=C(O)[C@H](O)[C@@H](O)C(=O)O [L-(+)-tartaric acid]	1.51 min
NC(=O)CC[C@H](N)C(=O)O [L-Glutamine]	1.3 min
CCCCCCCCC=CCCCCCCCC(=O)OC(COC(=O)CCCCCCCCCCCCCCC)COP(=O)([O-])OCC[N+](C)(C)C [L-a-Phosphatidylcholine]	59.9 min
NC(=O)C[C@H](N)C(=O)O [L-asparagine]	1.27 min
N[C@@H](CC(=O)O)C(=O)O [L-aspartic acid]	1.28 min
NC(=O)NCCC[C@H](N)C(=O)O [L-citrulline]	1.4 min
N[C@@H](CCSC[C@H](N)C(=O)O)C(=O)O [L-cystathionine]	1.21 min
N[C@@H](CS)C(=O)O [L-cysteine]	1.23 min
N[C@@H](CCC(=O)O)C(=O)O [L-glutamic acid]	1.31 min
NC(CCC(=O)NC(CS)C(=O)NCC(=O)O)C(=O)O [L-glutathione]	3.4 min
N[C@@H](Cc1cnc[nH]1)C(=O)O [L-histidine]	1.2 min

Source: the RepoRT retention time repository (doi:10.1007/s11306-011-0298-z)
